Measurements: patent publication US6414154B1, “Tetraisoquinoline derivatives as modulators of dopamine D3 receptors” (SmithKline Beecham p.l.c., priority 1998, dated 2002)

Biological target: T1, human D3 dopamine receptors (Homo sapiens, UniProt P35462)
T1 construct: expressed in transfected cells; host or cells: CHO cells (crude cell membranes)
Test: displacement of [125I] iodosulpride binding to cloned human D3 dopamine receptors expressed in CHO cells
Conditions: 0.1 nM [125I] iodosulpride, CHO cell membranes, 30 min at 37° C.; read-out: pKi at the D3 receptor (converted)
Procedure: The inhibition constants (Ki) of test compounds for displacement of [^125I] iodosulpride binding to human D3 dopamine receptors expressed in CHO cells were determined as follows. […] Cultures were grown as monolayers or in suspension in standard cell culture media. Cells were recovered by scraping (from monolayers) or by centrifugation (from suspension cultures), and were washed two or three times by suspension in phosphate buffered saline followed by collection by centrifugation. Cell pellets were stored frozen at −40° C. Crude cell membranes were prepared by homogenisation followed by high-speed centrifugation, and characterisation of cloned receptors achieved by radioligand binding.
Cell pellets were gently thawed at room temperature, and resuspended in about 20 volumes of ice-cold 50 mM Tris salts (pH 7.4@37° C.), 20 mM EDTA, 0.2 M sucrose. The suspension was homogenised using an Ultra-Turrax at full speed for 15 sec. The homogenate was centrifuged at 18,000 r.p.m for 20 min at 4° C. in a Sorvall RC5C centrifuge. The membrane pellet was resuspended in ice-cold 50 mM Tris salts (pH 7.4@37° C.), using an Ultra-Turrax, and recentrifuged at 18,000 r.p.m for 15 min at 4° C. in a Sorvall RC5C. The membranes were washed two more times with ice-cold 50 mM Tris salts (pH 7.4@37° C.). The final pellet was resuspended in 50 mM Tris salts (pH 7.4@37° C.), and the protein content determined using bovine serum albumin as a standard (Bradford, M. M. (1976) Anal. Biochem. 72, 248-254).
Crude cell membranes were incubated with 0.1 nM [^125I] iodosulpride (˜2000 Ci/mmol; Amersham, U. K.), and the test compound in a buffer containing 50 mM Tris salts (pH 7.4@37° C.), 120 mM NaCl, 5 mM KCl, 2 mM CaCl2, 1 mM MgCl2, 0.1% (w/v) bovine serum albumin, in a total volume of 1 ml for 30 min at 37° C. Following incubation, samples were filtered using a Brandel Cell Harvester, and washed three times with ice-cold 50 mM Tris salts (pH 7.4@37° C.), 120 mM NaCl, 5 mM KCl, 2 mM CaCl2, 1 mM MgCl2. The radioactivity on the filters was measured using a Cobra gamma counter (Canberra Packard). Non-specific binding was defined as the radioligand binding remaining after incubation in the presence of 100 μM iodosulpride. For competition curves, 14 concentrations (half-log dilutions) of competing cold drug were used. Competition curves were analysed simultaneously whenever possible using non-linear least-squares fitting procedures, capable of fitting one, two or three site models.

T1 sequence (P35462 whole entry): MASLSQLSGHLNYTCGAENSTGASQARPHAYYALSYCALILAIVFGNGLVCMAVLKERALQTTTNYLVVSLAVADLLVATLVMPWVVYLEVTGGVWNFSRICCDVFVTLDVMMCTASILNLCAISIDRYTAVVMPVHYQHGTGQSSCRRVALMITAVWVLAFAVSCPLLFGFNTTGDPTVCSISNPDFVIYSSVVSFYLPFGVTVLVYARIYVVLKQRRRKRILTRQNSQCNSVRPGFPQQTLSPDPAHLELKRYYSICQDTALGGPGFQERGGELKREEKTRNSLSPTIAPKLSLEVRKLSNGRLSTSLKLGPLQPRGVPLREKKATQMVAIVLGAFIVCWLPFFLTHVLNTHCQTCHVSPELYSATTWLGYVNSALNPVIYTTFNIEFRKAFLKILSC

Compound	Ki [nM]
N#Cc1ccc2c(c1)CCN(CC[C@H]1CC[C@H](NC(=O)CCc3ccc(F)cc3)CC1)C2 [Example 25, trans-6-Cyano-2-(2-(1-(4-(3-(4-fluoro)phenyl)propionamido)-cyclohexyl)ethyl)-1,2,3,4-tetrahydroisoquinoline]	3.16 to 12.6
N#Cc1ccc2c(c1)CCN(CC[C@H]1CC[C@H](NC(=O)CCCc3ccccc3)CC1)C2 [Example 24, trans-6-Cyano-2-(2-(1-(4-(4-phenyl)butyramido)cyclohexyl)ethyl)-1,2,3,4-tetrahydroisoquinoline]	3.16 to 12.6
